Data taken from US8575193B2, “N-substituted tetrahydroisoquinoline/isoindoline hydroxamic acid compounds” (4SC AG, priority 2008, dated 2013).
Counter-ions that a name gives are not always drawn.

Test system: nuclear HeLa extract (mixture of class I and II HDACs)
Assay: Fluorimetric HDAC activity assay with nuclear HeLa extract
Assay type: biochemical, human
Conditions: nuclear HeLa extract inhibitory activity; substrate Ac-NH-GGK(Ac)-AMC 25 μM, 90 min at 30° C.; listed as Ex. 11
Experimental: HDAC activity is isolated from nuclear HeLa extracts according to a method original described by Dignam et al. (Nucl. Acids Res. 11, pp 1475, 1983). Briefly, nuclei isolated from HeLa cells (CIL SA, Seneffe, Belgium) are resuspended in buffer C (20 mM Hepes pH 7.9, 25% v:v glycerol, 0.42M NaCl, 1.5 mM MgCl2, 0.2 mM EDTA, 0.5 mM PefaBloc and 0.5 mM DTT) and stirred for 30 min on ice. After centrifugation, the supernatant is dialysed against buffer D (40 mM Tris HCl pH 7.4, 100 mM KCl, 0.2 mM EDTA, 0.5 mM DTT and 25% v:v glycerol) for 5 h at 4° C. After dialysis and centrifugation, the supernatant is stored in aliquots at −80° C. and used for Western blot analysis as well as the enzymatic assay as described in the following.
The HDAC enzyme activity assay is done as described by Wegener et al. (Chem. & Biol. 10, 61-68, 2003). […] After incubation at room temperature for further 40 min, fluorescence is measured using a Wallac Victor 1420 multilabel counter (Ex 355 nm, Em 460 nm) for quantification of AMC (7-amino-4-methylcoumarin) generated by trypsine cleavage of the deacetylated peptide. […] The corresponding pIC50 values of the compounds for HDAC inhibitory activity are determined from the concentration-effect curves by means of non-linear regression (Graphpad Prism software).

| HeLa nuclear extract [pIC50] | Compound |
| --- | --- |
| 4.22 | COCCOCC(=O)N1CCc2cc(C(=O)NO)ccc2C1 [Example 11, N-Hydroxy-2-[(2-methoxyethoxy)acetyl]-1,2,3,4-tetrahydroisoquinoline-6-carboxamide] |

Same assay, conditions: nuclear HeLa extract inhibitory activity; substrate Ac-NH-GGK(Ac)-AMC 25 μM, 90 min at 30° C.; listed as Ex. 15

| HeLa nuclear extract [pIC50] | Compound |
| --- | --- |
| 6.10 | COc1ccc2[nH]c(C(=O)N3CCc4cc(C(=O)NO)ccc4C3)cc2c1 [Example 15, N-Hydroxy-2-[(5-methoxy-1H-indol-2-yl)carbonyl]-1,2,3,4-tetrahydroisoquinoline-6-carboxamide] |

Test system: not listed separately
Assay: Cellular cytotoxicity assay (Alamar Blue/Resazurin), RKOp21
Assay type: cell-based
Conditions: human, RKOp21 cells; RKOp21, 72 hours incubation, Resazurin; read-out: RKOp21 Cytotoxicity [pIC50] (converted)
Experimental: The anti-proliferative activity of the compounds as described herein, is evaluated with various solid and hematological cancer cell lines using the Alamar Blue (Resazurin) cell viability assay (O'Brien et al, Eur J Biochem 267, 5421-5426, 2000). Resazurin is reduced to the fluorescent resorufin by cellular dehydrogenase activity, correlating with viable, proliferating cells. Test compounds are dissolved as 20 mM solutions in dimethylsulfoxide (DMSO) and subsequently diluted in semi-logarithmic steps. The cancer cell lines are seeded into 96 well flat bottom plates at respective cell densities in a volume of 200 μl per well to allow continuous proliferation during the experiment. 24 hours after seeding 1 μl each of the compound dilutions is added into each well of the 96 well plate. Wells containing untreated control cells are filled with 200 μl DMEM medium containing 0.5% v:v DMSO. The cells are then incubated with the substances for 72 hours at 37° C. in a humidified atmosphere containing 5% carbon dioxide. To determine the viability of the cells, 20 μl of a Resazurin solution (Sigma; 90 mg/l) are added. After 4 hours incubation at 37° C. the fluorescence is measured at an extinction of 544 nm and an emission of 590 nm. For the calculation of the cell viability the emission value from untreated cells is set as 100% viability and the emission rates of treated cells are set in relation to the values of untreated cells. Viabilities are expressed as % values. The corresponding pIC50 values of the compounds for cytotoxic activity are determined from the concentration-effect curves by means of non-linear regression.

| Compound | IC50 at 72 h [µM] |
| --- | --- |
| O=C(NO)c1ccc2c(c1)CN(C(=O)C1CCOC1)CC2 (centres unmarked) [Example 20, N-Hydroxy-2-(tetrahydrofuran-3-ylcarbonyl)-1,2,3,4-tetrahydroisoquinoline-7-carboxamide] | > 100 |
| COCCCNC(=O)N1CCc2cc(C(=O)NO)ccc2C1 [Example 5, N6-Hydroxy-N2-(3-methoxypropyl)-3,4-dihydroisoquinoline-2,6(1H)-dicarboxamide] | > 100 |
| O=C(NO)c1ccc2c(c1)CCN(C(=O)Cc1cccnc1)C2 [Example 8, N-Hydroxy-2-(pyridin-3-ylacetyl)-1,2,3,4-tetrahydroisoquinoline-6-carboxamide hydrochloride] | > 100 |
| CNC(=O)N1CCc2cc(C(=O)NO)ccc2C1 [Example 4, N6-Hydroxy-N2-methyl-3,4-dihydroisoquinoline-2,6(1H)-dicarboxamide] | > 100 |
| COCCCOC(=O)N1CCc2cc(C(=O)NO)ccc2C1 [Example 6, 3-Methoxypropyl-6-(hydroxycarbamoyl)-3,4-dihydroisoquinoline-2(1H)-carboxylate] | > 100 |
| CN(C)CCCC(=O)N1CCc2cc(C(=O)NO)ccc2C1 [Example 9, 2-[4-(Dimethylamino)butanoyl]-N-hydroxy-1,2,3,4-tetrahydroisoquinoline-6-carboxamide hydrochloride] | > 100 |
| O=C(NO)c1ccc2c(c1)CCN(C(=O)C1CCC1)C2 [Example 3, 2-(Cyclobutylcarbonyl)-N-hydroxy-1,2,3,4-tetrahydroisoquinoline-6-carboxamide] | > 100 |
| COc1ccc2[nH]c(C(=O)N3CCc4ccc(C(=O)NO)cc4C3)cc2c1 [Example 24, N-Hydroxy-2-[(5-methoxy-1H-indol-2-yl)carbonyl]-1,2,3,4-tetrahydroisoquinoline-7-carboxamide] | 1 to 100 |
| O=C(NO)c1ccc2c(c1)CCN(C(=O)Cc1c[nH]c3ccccc13)C2 [Example 1, N-Hydroxy-2-(indol-3-ylacetyl)-1,2,3,4-tetrahydroisoquinoline-6-carboxamide hydrochloride] | 1 to 100 |
| O=C(NO)c1ccc2c(c1)CCN(C(=O)C1CCOC1)C2 (centres unmarked) [Example 13, N-Hydroxy-2-(tetrahydrofuran-3-ylcarbonyl)-1,2,3,4-tetrahydroisoquinoline-6-carboxamide] | > 100 |

Test system: not given
Assay: not given
Conditions: not given

| melting point [°C] | Compound |
| --- | --- |
| 156 | COc1ccc2[nH]c(C(=O)N3CCc4cc(C(=O)NO)ccc4C3)cc2c1 [Example 15, N-Hydroxy-2-[(5-methoxy-1H-indol-2-yl)carbonyl]-1,2,3,4-tetrahydroisoquinoline-6-carboxamide] |
| 90 | O=C(NO)c1ccc2c(c1)CCN(C(=O)C1CC1)C2 [Example 16, N-Hydroxy-2-(cyclopropylcarbonyl)-1,2,3,4-tetrahydroisoquinoline-6-carboxamide] |
